Measurements as given in ChEMBL document CHEMBL4627279, “Discovery and structure-activity relationships of spiroindolines as novel inducers of oligodendrocyte progenitor cell differentiation” (Bioorg Med Chem, 2020).
Activity calls are given as the source filed them. The calls are words filed in the database; no cut-off is given here.

Legend:
cells [1] = conditions: Rattus norvegicus
Description: Induction of rat oligodendrocyte precursor cells differentiation assessed as myelin basic protein expression by immunostaining based assay

[2] = Plasma clearance in C57BL/6 mouse at 1 mg/kg, iv administered as a single dose; format: ADME, organism-based
physchem = conditions: buffer, pH 7.4
Description: Lipophilicity, log D of the compound at pH 7.4

[3] = AUClast in C57BL/6 mouse at 10 mg/kg, po administered as a single dose; format: ADME, organism-based; set-up: dose 10 mg/kg, route oral, time 0 - last; conditions: in vivo
in vitro [4] = conditions: human
Description: Metabolic stability in human assessed as parent compound remaining after 30 mins

in vitro [5] = conditions: mouse
Description: Metabolic stability in mouse assessed as parent compound remaining after 30 mins

CYP2D6 = CYP2D6 (Homo sapiens, UniProt P10635); experiment: Inhibition of CYP2D6 in human liver microsomes at 10 uM; format: ADME
CYP2D6, sequence (P10635 whole entry): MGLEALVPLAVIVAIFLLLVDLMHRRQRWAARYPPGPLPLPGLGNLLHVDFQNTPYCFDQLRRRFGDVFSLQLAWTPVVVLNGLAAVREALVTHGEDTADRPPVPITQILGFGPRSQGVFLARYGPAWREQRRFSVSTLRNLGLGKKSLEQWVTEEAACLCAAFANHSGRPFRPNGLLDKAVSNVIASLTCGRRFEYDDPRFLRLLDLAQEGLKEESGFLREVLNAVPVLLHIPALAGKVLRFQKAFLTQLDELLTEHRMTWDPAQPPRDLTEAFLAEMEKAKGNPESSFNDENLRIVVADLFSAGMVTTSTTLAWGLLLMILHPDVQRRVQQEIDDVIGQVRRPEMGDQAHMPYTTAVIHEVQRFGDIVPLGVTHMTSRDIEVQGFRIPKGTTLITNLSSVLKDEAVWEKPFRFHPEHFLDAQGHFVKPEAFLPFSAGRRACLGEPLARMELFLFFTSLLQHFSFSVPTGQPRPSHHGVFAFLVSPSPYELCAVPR

[6] = Brain to plasma permeability coefficient, Kp of the compound in C57BL/6 mouse after 4 hrs; format: ADME
Cytochrome P450 3A4 = Cytochrome P450 3A4 (Homo sapiens, UniProt P08684); experiment: Inhibition of CYP3A4 in human liver microsomes; format: ADME
Cytochrome P450 3A4, sequence (P08684 whole entry): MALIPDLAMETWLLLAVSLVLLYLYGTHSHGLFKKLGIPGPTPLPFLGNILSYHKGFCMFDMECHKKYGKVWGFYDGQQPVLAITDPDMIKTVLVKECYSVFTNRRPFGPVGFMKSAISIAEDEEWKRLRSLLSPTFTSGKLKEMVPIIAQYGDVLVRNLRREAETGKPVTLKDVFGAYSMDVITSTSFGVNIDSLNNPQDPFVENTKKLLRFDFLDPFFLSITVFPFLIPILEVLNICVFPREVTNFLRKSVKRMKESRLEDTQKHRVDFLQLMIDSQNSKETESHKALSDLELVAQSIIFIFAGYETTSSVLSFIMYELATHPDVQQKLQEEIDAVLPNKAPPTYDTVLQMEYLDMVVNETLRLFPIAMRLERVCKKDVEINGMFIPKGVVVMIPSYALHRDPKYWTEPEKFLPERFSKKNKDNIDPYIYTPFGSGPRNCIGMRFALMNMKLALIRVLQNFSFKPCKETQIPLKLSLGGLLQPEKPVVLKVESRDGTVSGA

[7] = Cmax in C57BL/6 mouse at 10 mg/kg, po administered as a single dose; format: ADME, organism-based; set-up: dose 10 mg/kg, route oral; conditions: in vivo
hERG (KCNH2) = hERG (KCNH2) (Homo sapiens, UniProt Q12809); experiment: in vitro
hERG (KCNH2), sequence (Q12809 whole entry): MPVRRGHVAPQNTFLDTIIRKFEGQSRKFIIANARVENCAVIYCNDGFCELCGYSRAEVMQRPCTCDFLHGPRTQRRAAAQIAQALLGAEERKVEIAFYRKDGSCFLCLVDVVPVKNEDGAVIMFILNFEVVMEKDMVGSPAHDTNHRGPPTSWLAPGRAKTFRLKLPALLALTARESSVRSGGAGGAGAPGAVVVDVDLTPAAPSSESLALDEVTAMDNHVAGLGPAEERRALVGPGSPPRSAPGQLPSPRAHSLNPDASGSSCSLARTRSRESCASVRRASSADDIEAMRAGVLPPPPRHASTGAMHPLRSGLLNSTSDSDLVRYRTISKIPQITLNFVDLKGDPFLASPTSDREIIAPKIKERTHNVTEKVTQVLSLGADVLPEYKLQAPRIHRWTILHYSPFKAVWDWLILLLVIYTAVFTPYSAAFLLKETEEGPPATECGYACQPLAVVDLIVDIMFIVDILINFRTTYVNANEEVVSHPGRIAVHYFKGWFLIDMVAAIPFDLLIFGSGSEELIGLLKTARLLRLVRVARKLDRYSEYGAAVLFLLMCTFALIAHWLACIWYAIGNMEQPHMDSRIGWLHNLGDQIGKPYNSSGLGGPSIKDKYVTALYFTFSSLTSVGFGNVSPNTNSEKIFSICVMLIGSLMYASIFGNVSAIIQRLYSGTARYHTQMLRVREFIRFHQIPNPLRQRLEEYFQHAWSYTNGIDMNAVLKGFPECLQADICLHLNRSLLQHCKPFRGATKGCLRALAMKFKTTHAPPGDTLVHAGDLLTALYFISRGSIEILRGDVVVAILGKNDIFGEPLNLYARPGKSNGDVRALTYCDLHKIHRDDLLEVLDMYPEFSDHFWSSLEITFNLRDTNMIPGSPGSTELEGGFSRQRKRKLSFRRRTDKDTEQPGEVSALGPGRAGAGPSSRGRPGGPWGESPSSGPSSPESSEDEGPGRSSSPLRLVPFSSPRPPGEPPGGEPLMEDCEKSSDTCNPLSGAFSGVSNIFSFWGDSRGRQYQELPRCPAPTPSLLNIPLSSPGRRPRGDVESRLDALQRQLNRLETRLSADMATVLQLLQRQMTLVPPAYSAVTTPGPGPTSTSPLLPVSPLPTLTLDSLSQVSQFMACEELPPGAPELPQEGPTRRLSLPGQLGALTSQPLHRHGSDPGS
Description: Inhibition of human ERG at 10 uM

[8] = Elimination half life in C57BL/6 mouse at 10 mg/kg, po administered as a single dose; format: ADME, organism-based; conditions: in vivo, read-out: beta t1/2 (converted)
[9] = Oral bioavailability in C57BL/6 mouse at 10 mg/kg administered as a single dose; format: ADME, organism-based; conditions: in vivo
[10] = Volume of distribution in C57BL/6 mouse at 1 mg/kg, iv administered as a single dose; format: ADME, organism-based; conditions: in vivo
Cytochrome P450 2C9 = Cytochrome P450 2C9 (Homo sapiens, UniProt P11712); experiment: Inhibition of CYP2C9 in human liver microsomes; format: ADME
Cytochrome P450 2C9, sequence (P11712 whole entry, the tested form may be a part): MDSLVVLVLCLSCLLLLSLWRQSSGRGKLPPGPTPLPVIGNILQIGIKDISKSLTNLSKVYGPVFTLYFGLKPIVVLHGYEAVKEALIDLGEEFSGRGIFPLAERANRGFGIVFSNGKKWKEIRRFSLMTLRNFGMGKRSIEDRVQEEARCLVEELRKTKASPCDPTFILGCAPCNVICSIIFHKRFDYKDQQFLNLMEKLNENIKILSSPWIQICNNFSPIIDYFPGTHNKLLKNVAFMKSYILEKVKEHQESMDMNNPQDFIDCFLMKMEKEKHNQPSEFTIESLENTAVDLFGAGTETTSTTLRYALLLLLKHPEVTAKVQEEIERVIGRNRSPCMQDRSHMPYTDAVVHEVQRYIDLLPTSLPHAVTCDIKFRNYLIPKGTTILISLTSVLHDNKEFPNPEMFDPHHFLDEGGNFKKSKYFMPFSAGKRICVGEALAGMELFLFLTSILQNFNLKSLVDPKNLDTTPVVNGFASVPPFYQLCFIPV

Mus musculus = experiment: Immunosuppressive activity in MOG (35 to 55 residues)/pertussis toxin-induced experimental autoimmune encephalomyelitis C57BL/6 mouse model assessed as reduction in development of clinical symptoms at 50 mg/kg, po administered once a day starting from day 3 post immunization upto 17 days; format: functional, organism-based
cells [11] = conditions: Rattus norvegicus; remark: listed apart in the source
Description: Induction of rat oligodendrocyte precursor cells differentiation assessed as myelin basic protein expression by immunostaining based assay relative to control

[12] = Brain to plasma permeability coefficient, Kp of the compound in C57BL/6 mouse after 0.5 hrs; format: ADME

| SMILES | EC50 (cells [1]) [nM] | further results |
| --- | --- | --- |
| CCCN1CCC2(CC1)Nc1ccc(C(C)C)cc1C2=O | 550 |  |
| CC(C)c1ccc2c(c1)C(=O)C1(CCN(S(=O)(=O)C3CC3)CC1)N2 | > 10000 |  |
| COC1c2cc(C(F)(F)F)ccc2NC12CCN(CC1CCOCC1)CC2 (stereo unspecified) | 5.7 |  |
| CC(C)CN1CCC2(CC1)Nc1ccc(C(C)C)cc1C2=O | 330 |  |
| FC(F)(F)c1ccc2c(c1)CC1(CCN(CC3CCOCC3)CC1)N2 | 240 |  |
| OC1c2cc(C(F)(F)F)ccc2NC12CCN(CC1CCOCC1)CC2 (stereo unspecified) | 520 |  |
| CN1c2ccc(C(F)(F)F)cc2C(=O)C12CCN(CC1CCOCC1)CC2 | 9.3 |  |
| O=C1c2cc(C(F)(F)F)ccc2NC12CCN(CC1CCOCC1)CC2 | 3.2 | clearance [2]: 79.2 mL/min/kg; logD (physchem): 2.8; AUC(0-t) [3]: 1780 ng·h/mL; remaining at 0.5 h (in vitro [4]): 35%; remaining at 0.5 h (in vitro [5]): 68%; inhibition at 10 µM (CYP2D6): 70%; Kp at 4 h [6]: 50.9; IC50 (Cytochrome P450 3A4): > 18000 nM; Cmax [7]: 308 ng/mL; inhibition at 10 µM (hERG (KCNH2)): 94%; half-life [8]: 6.4 h; bioavailability [9]: 116%; Vd [10]: 31.5 L/kg; IC50 (Cytochrome P450 2C9): > 18000 nM; Activity (Mus musculus): Active; Emax (cells [11]): 240%; Kp at 0.5 h [12]: 25.5 |
| CN1c2ccc(C(F)(F)F)cc2CC12CCN(CC1CCOCC1)CC2 | 7100 |  |
| CC(C)c1ccc2c(c1)C(=O)C1(CCN(C(=O)C3CC3)CC1)N2 | > 10000 |  |
| CC(C)c1ccc2c(c1)C(=O)C1(CCN(CCc3ccccc3)CC1)N2 | 540 |  |
| CC(C)c1ccc2c(c1)C(=O)C1(CCN(Cc3ccccc3)CC1)N2 | 330 |  |

Now from value to compound, other results behind:

| EC50 (cells [1]) [nM] | SMILES | further results |
| --- | --- | --- |
| 320 | O=C1c2cc(Cl)ccc2NC12CCN(CC1CCOCC1)CC2 |  |
| 9.9 | CC(C)(C)c1ccc2c(c1)C(=O)C1(CCN(CC3CCOCC3)CC1)N2 |  |
| 110 | O=C1c2cc(C(F)(F)F)ccc2CC12CCN(CC1CCOCC1)CC2 |  |
| 16 | CC(C)c1ccc2c(c1)C(=O)C1(CCN(CC3CCC3)CC1)N2 |  |
| 4.6 | CC(C)c1ccc2c(c1)C(=O)C1(CCN(CC3CCOCC3)CC1)N2 |  |
| > 10000 | O=C1c2cc(O)ccc2NC12CCN(CC1CCOCC1)CC2 |  |
| 550 | O=C1c2ccccc2NC12CCN(CC1CCOCC1)CC2 |  |
| 37 | CC(C)c1ccc2c(c1)C(=O)C1(CCN(CC3CCCCC3)CC1)N2 |  |
| 480 | O=C1c2cc(C(F)(F)F)ccc2OC12CCN(CC1CCOCC1)CC2 |  |
| 970 | COc1ccc2c(c1)C(=O)C1(CCN(CC3CCOCC3)CC1)N2 |  |
| 59 | CC(C)Oc1ccc2c(c1)C(=O)C1(CCN(CC3CCOCC3)CC1)N2 |  |
| 25 | CC(C)c1ccc2c(c1)C(=O)C1(CCN(CC3CCCC3)CC1)N2 |  |
